# Data published in ChEMBL document CHEMBL2380247, “Synthesis and biological evaluation of novel aliphatic amido-quaternary ammonium salts for anticancer chemotherapy: part II” (2013).
# Key:
# Type in all cases: functional
# [1] = tested on: NUGC-3; test: Antiproliferative activity against human NUGC3 cells at 0.3 uM by SRB assay
# [2] = tested on: NUGC-3; test: Antiproliferative activity against human NUGC3 cells at 0.1 uM by SRB assay
# [3] = tested on: NUGC-3; test: Antiproliferative activity against human NUGC3 cells at 1 uM by SRB assay
# [4] = tested on: NUGC-3; test: Antiproliferative activity against human NUGC3 cells at 10 uM by SRB assay
# [5] = tested on: NUGC-3; test: Antiproliferative activity against human NUGC3 cells at 3 uM by SRB assay
# [6] = tested on: MDA-MB-231; test: Antiproliferative activity against human MDA-MB-231 cells at 0.1 uM by SRB assay
# [7] = tested on: MDA-MB-231; test: Antiproliferative activity against human MDA-MB-231 cells at 0.3 uM by SRB assay
# [8] = tested on: MDA-MB-231; test: Antiproliferative activity against human MDA-MB-231 cells at 1 uM by SRB assay
# [9] = tested on: MDA-MB-231; test: Antiproliferative activity against human MDA-MB-231 cells at 10 uM by SRB assay
# [10] = tested on: MDA-MB-231; test: Antiproliferative activity against human MDA-MB-231 cells at 3 uM by SRB assay
# [11] = tested on: ACHN; test: Antiproliferative activity against human ACHN cells at 0.1 uM by SRB assay
# [12] = tested on: ACHN; test: Antiproliferative activity against human ACHN cells at 1 uM by SRB assay
# [13] = tested on: ACHN; test: Antiproliferative activity against human ACHN cells at 0.3 uM by SRB assay
# [14] = tested on: ACHN; test: Antiproliferative activity against human ACHN cells at 3 uM by SRB assay
# [15] = tested on: ACHN; test: Antiproliferative activity against human ACHN cells at 10 uM by SRB assay
# [16] = tested on: NCI-H23; test: Antiproliferative activity against human NCI-H23 cells at 0.3 uM by SRB assay
# [17] = tested on: NCI-H23; test: Antiproliferative activity against human NCI-H23 cells at 0.1 uM by SRB assay
# [18] = tested on: NCI-H23; test: Antiproliferative activity against human NCI-H23 cells at 3 uM by SRB assay
# [19] = tested on: NCI-H23; test: Antiproliferative activity against human NCI-H23 cells at 1 uM by SRB assay
# [20] = tested on: NCI-H23; test: Antiproliferative activity against human NCI-H23 cells at 10 uM by SRB assay
# [21] = tested on: PC-3; test: Antiproliferative activity against human PC3 cells at 0.1 uM by SRB assay
# [22] = tested on: PC-3; test: Antiproliferative activity against human PC3 cells at 1 uM by SRB assay
# [23] = tested on: PC-3; test: Antiproliferative activity against human PC3 cells at 0.3 uM by SRB assay
# [24] = tested on: PC-3; test: Antiproliferative activity against human PC3 cells at 3 uM by SRB assay
# [25] = tested on: HCT-15; test: Antiproliferative activity against human HCT15 cells at 0.1 uM by SRB assay
# [26] = tested on: PC-3; test: Antiproliferative activity against human PC3 cells at 10 uM by SRB assay
# [27] = tested on: HCT-15; test: Antiproliferative activity against human HCT15 cells at 0.3 uM by SRB assay
# [28] = tested on: HCT-15; test: Antiproliferative activity against human HCT15 cells at 3 uM by SRB assay
# [29] = tested on: HCT-15; test: Antiproliferative activity against human HCT15 cells at 1 uM by SRB assay
# [30] = tested on: HCT-15; test: Antiproliferative activity against human HCT15 cells at 10 uM by SRB assay
# [31] = tested on: NCI-H23; test: Antiproliferative activity against human NCI-H23 cells by SRB assay
# [32] = tested on: NUGC-3; test: Antiproliferative activity against human NUGC3 cells by SRB assay
# [33] = tested on: HCT-15; test: Antiproliferative activity against human HCT15 cells by SRB assay
# [34] = tested on: ACHN; test: Antiproliferative activity against human ACHN cells by SRB assay
# [35] = tested on: MDA-MB-231; test: Antiproliferative activity against human MDA-MB-231 cells by SRB assay
# [36] = tested on: PC-3; test: Antiproliferative activity against human PC3 cells by SRB assay
SMILES,"growth, % of control at 0.3 µM [1] [%]","growth, % of control at 0.1 µM [2] [%]","growth, % of control at 1 µM [3] [%]","growth, % of control at 10 µM [4] [%]","growth, % of control at 3 µM [5] [%]","growth, % of control at 0.1 µM [6] [%]","growth, % of control at 0.3 µM [7] [%]","growth, % of control at 1 µM [8] [%]","growth, % of control at 10 µM [9] [%]","growth, % of control at 3 µM [10] [%]","growth, % of control at 0.1 µM [11] [%]","growth, % of control at 1 µM [12] [%]","growth, % of control at 0.3 µM [13] [%]","growth, % of control at 3 µM [14] [%]","growth, % of control at 10 µM [15] [%]","growth, % of control at 0.3 µM [16] [%]","growth, % of control at 0.1 µM [17] [%]","growth, % of control at 3 µM [18] [%]","growth, % of control at 1 µM [19] [%]","growth, % of control at 10 µM [20] [%]",also measured
CCCCCCCCCCCCCCCCCC(=O)NCC(C)(C)C[N+](C)(C)CC,69.6,83.1,52.5,2.11,14.8,87.8,79.1,70.4,19.9,40.4,91.5,75.5,82.9,50,33,97.7,95.1,29.8,74.7,-18.3,"growth, % of control at 0.1 µM [21]: 89.5%; growth, % of control at 1 µM [22]: 21.6%; growth, % of control at 0.3 µM [23]: 82.2%; growth, % of control at 3 µM [24]: -38.3%; growth, % of control at 0.1 µM [25]: 98%; growth, % of control at 10 µM [26]: -46.2%; growth, % of control at 0.3 µM [27]: 96.7%; growth, % of control at 3 µM [28]: 61.6%; growth, % of control at 1 µM [29]: 86.8%; growth, % of control at 10 µM [30]: 32.6%; GI50 [31]: 0.98 µM; GI50 [32]: 0.42 µM; GI50 [33]: 2.74 µM; GI50 [34]: 1.95 µM; GI50 [35]: 1.12 µM; GI50 [36]: 0.3 µM"
C=CC[N+](CC)(CC)CCN(C)C(=O)CCCCCCCCCCCCC,45.3,109,1.1,-7.8,-3.5,93.2,82.5,28.7,-11.6,6.6,69,16.8,42.6,8.6,-9,74.2,88,7.8,24.2,-10,"growth, % of control at 0.1 µM [21]: 91.2%; growth, % of control at 1 µM [22]: 12.2%; growth, % of control at 0.3 µM [23]: 74.9%; growth, % of control at 3 µM [24]: -6%; growth, % of control at 0.1 µM [25]: 97.4%; growth, % of control at 10 µM [26]: -21.6%; growth, % of control at 0.3 µM [27]: 96.8%; growth, % of control at 3 µM [28]: 85.1%; growth, % of control at 1 µM [29]: 96.3%; growth, % of control at 10 µM [30]: 57.9%; GI50 [31]: 0.24 µM; GI50 [32]: 0.14 µM; GI50 [33]: > 10 µM; GI50 [34]: 0.1 µM; GI50 [35]: 0.3 µM; GI50 [36]: 0.21 µM"
